From EP0069659A1, “Medicine containing the reaction product of a carboxylic acid and a basic amino acid” (CHANY, Charles, priority 1981, dated 1983)

Columns and labels:
[1] = test system: virus de l'encéphalomyocardite de la souris (EMC) de la souche Mengo; test: Antiviral protection of mice against the lethal effect of 100 DL50 of EMC virus; conditions: for survie lorsqu'on administre aussi de l'interféron: given together with interféron; for survie relevée au moment où la mortalité cesse dans la série d'animaux témoins: propionate d'arginine 0,252 mg/g, hexanoate d'arginine 0,29 mg/g, virus-only controls 5 sur 30
Description: Dans ces expériences, on met en évidence l'activité antivirale contre l'effet léthal de 100 DL50 du virus de l'encéphalomyocardite.
Les animaux de laboratoire utilisés sont des souris du type "Swiss" provenant d'un élevage propre aux Inventeurs.
Le virus employé est celui de l'encéphalomyocar- dite de la souris (EMC) de la souche Mengo cultivée sur des cellules murines L 929.
Le titre des suspensions de virus est estimé par la "méthode des plages" en utilisant toujours des cellules murines L 929. On admet que 5 unités (UFP) formant des plages, correspondent à une dose léthale DL50.
Le virus est inoculé par voie intrapéritonéale.
On réalise également, à titre de comparaison, les expériences suivantes : • - prétraitement des animaux par le butyrate de sodium avant inoculation du virus EMC, • - traitement par le butyrate d'arginine ou de lysine simultanément à l'injection du virus.
Des groupes de souris témoin sont traités par le virus seul et le solvant (milieu isotonique) seul.
et on a administré pour chaque expérience 0,5 ml de ces solutions par souris de 25 g.
L'interféron a été administré à raison de 20.000 à 25.000 unités internationales par souris par voie intrapéritonéale sous un volume de 0,5 ml et l'immunostimulant, à savoir le corynébacterium parvum, souche Mérieux, a été injecté à l'animal par voie intrapéritonéale à raison de 200 µg/0,1 ml/souris.
L'action antivirale a été étudiée dans les mêmes conditions que plus haut.

[2] = test system: mutant du sarcome de Crocker 180 TG; test: Antitumour activity in mice grafted intraperitoneally with ascitic sarcoma (nine experiments, figures 1 to 9); format: in vivo, souris Swiss
Description: La tumeur utilisée dans les expériences qui suivent est un mutant du sarcome de Crocker 180 TG qui résiste au traitement par les dérivés puriques.
Les animaux d'expériences sont toujours des souris Swiss de l'élevage susmentionné.
On leur inocule le sarcome par voie intrapéritonéale en utilisant une suspension de 10^6 cellules/0,5 ml.. La quantité inoculée est de 0,5 ml.
Les expériences ont été réalisées en utilisant : • - le butyrate d'arginine ou de lysine, • - l'interféron, • - le corynébacterium parvum (ou CP) de souche Mérieux.
Le butyrate d'arginine a été mis en oeuvre sous la forme et en quantité analogue à ce qui est indiqué plus haut pour l'activité antivirale.
Le CP est administré dans les expériences qui suivent sous la forme d'une dose unique appliquée au moment de la greffe ou trois jours après et se présentant sous la forme d'ampoules de 2 ml comprenant 4 mg en poids sec de germes tués par le formol et la chaleur; on injecte 0,1 ml de cette substance à la souris par voie intrapéritonéale.
On a procédé à neuf expériences indépendantes portant chacune sur plusieurs groupes de 15 animaux.
Dans la première de ces expériences (groupe témoin), on a greffé aux animaux la tumeur seule.
Dans les deuxième et troisième expériences, le butyrate d'amino-acide basique a été appliqué par voie intrapéritonéale à raison de 0,5 ml d'une solution 50 fois millimolaire par souris (c'est-à-dire à raison de respectivement 0,28 mg et 0,24 mg par g de souris), trois fois par semaine (à 48 heures d'intervalle) pendant trois semaines.
Dans la quatrième expérience, on a appliqué l'interféron à raison de 20.000 à 50.000 U.I. sous un volume de 0,5 ml administré à l'animal trois fois par semaine (à 48 heures d'intervalle) pendant trois semaines.
Dans la cinquième expérience, on a appliqué le CP en une dose unique de 200 microgrammes/0,1 ml par animal, administrée par voie intrapéritonéale en même temps ou trois jours après la greffe cellulaire.
Dans les sixième à neuvième expériences, on a appliqué, suivant le cas, le butyrate d'amino-acide basique, l'interféron et/ou le CP aux mêmes doses, au même rythme et aux mêmes moments que lorsque ces produits étaient appliqués seuls dans les expériences précédentes.
Ces histogrammes montrent, en fonction du temps (nombre de jours T), le nombre N d'animaux survivants et, parmi ces animaux survivants, le nombre d'animaux portant des tumeurs décelables.
Ainsi, le nombre d'animaux survivants est porté, pour un jour donné, en ordonnée sous la forme d'une colonne figurant le nombre d'animaux et à l'intérieur de laquelle on matérialise par des hachures le nombre d'animaux porteurs de tumeurs.

[3] = 45 animals at start, butyrate de lysine 0,24 mg/g i.p. 3 times a week for 3 weeks

Substance	survie lorsqu'on administre aussi de l'interféron [1]	survie relevée au moment où la mortalité cesse dans la série d'animaux témoins [1] [sur 30]	effet protecteur ([1]; treatment given simultaneously with the injection of the virus)	animaux restants au bout de 44 jours [2, 3]	porteurs de tumeur parmi les animaux restants au bout de 44 jours [2, 3]	animaux porteurs de tumeurs au 10e jour ([2]; butyrate 0,5 ml of 50 mM i.p. 3 times a week for 3 weeks (0,28 or 0,24 mg/g), interféron 20.000 à 50.000 U.I. 3 times a week for 3 weeks, CP single dose 200 microgrammes i.p.) [sur 45]	animaux survivants après 100 jours d'observation ([2]; same doses as E4, group sizes 45 to 75 animals, no control survives beyond day 28)
hexanoate d'arginine	considérablement augmentée	11					
propionate d'arginine	considérablement augmentée	18					
butyrate de lysine			aucun effet protecteur	2	1	32	un seul
